Data on four compounds can be found in US5554359A, “Pigmentation enhancer and method” (priority 1994, dated 1996).

Like-named read-outs stand apart in the source and are kept apart here. *1 amine or outer side, *2 acyl side, *3 side chain or, on linkers, in order; H or OH if unused. Where a SMILES comes first, the peptide text is derived from it. Bridges are numbered along the chain shown (N, C = ends). Roman numbers before positions name the chains, in order. [ ]: non-standard residue; d: D form. Actinocin(9to1) = Cc1c2oc3c(C)ccc(C(=O)[*:1])c3nc-2c(C(=O)[*:2])c(N)c1=O; NMeV = CN[C@H](C(=O)O)C(C)C; Sar = CNCC(=O)O

Assay [1] deals with tyrosinase activity in mouse melanoma cells. Put plainly: Tyrosinase activity in Cloudman S91/mouse melanoma cells, earlier studies. The format is cell-based. The settings on record: MSH-stimulated tyrosinase activity. As for the experimental part: The MSH response in these cells can be mimicked by treatment of cells with either cAMP analogues such as dbcAMP (dibutyryl cyclic AMP) or 8-bromo cAMP, or with inhibitors of phosphodiesterase activity such as theophylline and IBMX. […] Although it is clear that cAMP is the second messenger for MSH action, tyrosinase activity is not altered by direct incubation with activated protein kinase A, nor is tyrosinase directly phosphorylated by this kinase. Even though cAMP levels rise within minutes of treatment of cells with MSH, no increases in tyrosinase activity are detectable until 6-9 hours after exposure of cells to hormone. […] In an effort to further delineate the cellular pathways involved in the MSH stimulation of tyrosinase activity, we examined the transcriptional and translational requirements for MSH action. […] However, other studies have shown that tyrosinase may be activated in melanoma cells treated with MSH. Discussed herein are studies carried out to examine the contributions of induction and activation to the overall MSH stimulation of tyrosinase activity in melanoma cells. Further, studies on the regulation of tyrosinase in normal human melanocytes are also described and compared to those from melanoma cells.
Even more elaborate models involving an activation of tyrosinase via internalized MSH receptors have been proposed. Evidence for tyrosinase inhibitors in mouse melanocytes and melanoma has been reported by many investigators, but no such molecules have yet been isolated.

Assay [2] shares this test system. The settings on record: Cloudman S91; cited from earlier work.
Assay [3] has the same test system. The experiment in a line: Tyrosinase responses in mouse melanoma cells (Table 6). It counts as cell-based. The settings on record: compounds that raise intracellular cAMP levels or MSH. As for the experimental part:
(§1) The mouse melanoma cell lines used to study the effects of lysosomotropic agents herein were the Cloudman S91 cell line (ATCC no. CCL 53.1) and two subclones of this line developed in our laboratory, the amelanotic line, AM-7, and a melanotic line, MEL-11A. All melanoma cell lines were grown in Ham's F-10 nutrient medium supplemented with 10% horse serum, penicillin (100 units/ml), and streptomycin (100 μg/ml). The normal human melanocyte cell strains used in this study were derived from foreskins of either neonares or from boys 2-6 years old. Human melanocyte cultures were grown in Ham's F-10 nutrient medium supplemented with 10% horse serum, 5% fetal bovine serum (FBS), 32 nM TPA (12-O-tetradecanoylphorbol 13-acetate), 10^-4 M IBMX(3-isobutyl-1-methylxanthine), penicillin (100 units/ml), and streptomycin (100 μg/ml).
To determine tyrosinase activity in situ in either melanoma cells or in human melanocyte cultures, the tyrosine hydroxylase activity of the enzyme was determined. Cells were seeded into 60-mm culture dishes at 2×10^5 cells/dish and allowed to attach overnight. The medium was then exchanged for the appropriate growth medium supplemented with 1 μCi/ml of [^3 H]tyrosine (L-ring-3,5-^3 H]-tyrosine, DuPont New England Nuclear), and with hormones, where indicated. Cells were grown in labeled medium for 24 hours, and at this time, the medium was removed and assayed for the presence of ^3 H2 O using the charcoal absorption method of Pomerantz. Tyrosinase activity in cell homogenates was determined by sonicating cell pellets in 0.1-M sodium phosphate buffer (pH 6.8) and then incubating 50-μl aliquots in 0.5 ml of a reaction mixture containing 0.1-mM tyrosine, 2 μCi/ml of [^3 H]tyrosine, 0.1-mM L-DOPA (dihydroxyphenylalanine), and 0.1 mM PMSF (phenylmethylsulfonyl fluoride) at 37° C. for 2 hours. Reactions were terminated by the addition of 1 ml of charcoal (10% w/v in 0.1-N HCl). Samples were centrifuged, and the supernatants removed for determination of the amount of ^3 H2 O produced. […]
On the technique in general: cAMP levels reflect the balance of adenylyl cyclase and phosphodiesterase activity.

Assay [4] deals with tyrosinase activity in human melanocytes. Put plainly: Tyrosinase responses in human melanocytes (Table 6). The format is cell-based. The settings on record: Homo sapiens, Melanocyte; Table 6; 10^-7 M except IBMX 10^-4 M, theophylline 1 mM, ammonium chloride 10 mM, A23187 not given; melanocytes from skin type III; read-out: Effect on Tyrosinase Activity, Human Melanocyte. As for the experimental part:
as §1
To determine tyrosinase activity in situ in either melanoma cells or in human melanocyte cultures, the tyrosine hydroxylase activity of the enzyme was determined. Cells were seeded into 60-mm culture dishes at 2×10^5 cells/dish and allowed to attach overnight. The medium was then exchanged for the appropriate growth medium supplemented with 1 μCi/ml of [^3 H]tyrosine (L-ring-3,5-^3 H]-tyrosine, DuPont New England Nuclear), and with hormones, where indicated. Cells were grown in labeled medium for 24 hours, and at this time, the medium was removed and assayed for the presence of ^3 H2 O using the charcoal absorption method of Pomerantz. Tyrosinase activity in cell homogenates was determined by sonicating cell pellets in 0.1-M sodium phosphate buffer (pH 6.8) and then incubating 50-μl aliquots in 0.5 ml of a reaction mixture containing 0.1-mM tyrosine, 2 μCi/ml of [^3 H]tyrosine, 0.1-mM L-DOPA (dihydroxyphenylalanine), and 0.1 mM PMSF (phenylmethylsulfonyl fluoride) at 37° C. for 2 hours. Reactions were terminated by the addition of 1 ml of charcoal (10% w/v in 0.1-N HCl). Samples were centrifuged, and the supernatants removed for determination of the amount of ^3 H2 O produced.
Hormone responsiveness in human melanocyte cell cultures were examined (for these studies, melanocytes derived from skin type III were used). […] Tyrosinase activity and melanin content typically double with a 48-hour exposure to IBMX. […] The steroid hormones, for the most part, caused little, if any, change in tyrosinase activity at the concentrations used.

The subject of assay [5] is tyrosinase activity in human foreskin organ cultures. The experiment in a line: Tyrosinase activity in human foreskin organ cultures (tyrosine hydroxylase assay). It counts as cell-based. Conditions: for activity at 1000 µM: Homo sapiens, read-out: Tyrosinase Activity, Percentage of control; for activity at 1000 µM / Tyrosinase Activity: Table 3, theophylline 1 mM, 3 days. The method, then: At the time of surgical removal, human foreskins were placed on sterile gauze saturated with sterile IMDM medium (Iscove's modified Dulbecco's medium purchased from Irvine Scientific of Santa Ana, Calif.) for transportation from the Hospital nursery to the laboratory. The tissues were rinsed in sterile IMDM medium containing 500 U/ml penicillin and 500 μg/ml of streptomycin for 5 minutes. Under sterile conditions, an intradermal injection of medium was performed from the dermal side prior to dissection of the mucous membrane and lower dermis by scissors to make the thickness of skins equal. The foreskins were then cut into approximately 3 mm×3 mm squares and either frozen at -75° C. or placed in organ culture as described hereafter.
The organ culture medium was prepared from IMDM with glutamine supplemented with 20% horse serum, 5% fetal bovine serum, 100 U/ml penicillin, 100 μg/ml streptomycin and 3 mg/ml sodium bicarbonate. The serums were obtained from Hyclone Lab. Inc. of Logan Utah. Culture units were prepared by placing sterilized filters (AP20 025 00, Millipore) over sterilized support screens ([…] Swinnex filter support screens, Millipore) in the wells of 6-well tissue culture plates (Falcon 3046) with medium added to the wells such that the skin support screens floated and the filter absorbed the medium from beneath. The tissue samples were placed, epidermis up, on top of the saturated filters and incubated at 37° C. in a 5% CO2 humidified atmosphere. The medium was changed everyday. Harvested cultures were frozen at -75° C.
Tyrosinase activity in human skin organ cultures was determined by measuring the tyrosine hydroxylase activity of the enzyme. The assay measures the production of ^3 H2 O during the conversion of [^3 H]tyrosine to L-DOPA. Weighed skin preparations were incubated in 0.3 ml of a reaction mixture containing 0.01 mM of L-tyrosine, 5-6 uCi/ml of [^3 H]tyrosine and 0.1 mM L-DOPA in 0.1M of pH 6.8 phosphate buffer for 4 hours at 37° C. To terminate the reaction, 1 ml of phosphate buffer was added, the tubes vortexed, and 0.4 ml aliquots removed in triplicate and mixed with an equal volume of Norit SG activated charcoal (10% w/v, in 0.1N HCl). Following centrifugation at 2000×g for 10 min, the supernatants (0.5 ml) were placed in scintillation vials, scintillation fluid added, and vials counted in a TM Analytic 6895 scintillation counter equipped with a DPM processor.
Human foreskins were treated with the compounds shown in Table 1, placed in culture, and incubated for 72 hours. The skins were then assayed for tyrosinase activity with the tyrosine hydroxylase assay method as described herein.
The medium and compounds were changed daily. Tyrosinase activity was determined by measuring the tyrosine hydroxylase activity of the enzyme.
Human foreskin organ cultures were treated with the compounds listed in Table 3 for 3 days and tyrosinase activity determined as described herein. Theophylline was used at 1 mM.

Where [6] appears, read: Table 1, B = black, 72 h, Theophylline 1 mM, MSH 2 × 10^-7 M, dbcAMP 0.1 mM, D-phe-MSH 10^-8 M.
The mark [7] stands for this setting: Table 1, W = white, 72 h, Theophylline 1 mM, MSH 2 × 10^-7 M, dbcAMP 0.1 mM, D-phe-MSH 10^-8 M.

Turning to `Cc1c2oc3c(C)ccc(C(=O)N[C@@H]4C(=O)N[C@H](C(C)C)C(=O)N5CCC[C@H]5C(=O)N(C)CC(=O)N(C)[C@@H](C(C)C)C(=O)O[C@@H]4C)c3nc-2c(C(=O)N[C@@H]2C(=O)N[C@H](C(C)C)C(=O)N3CCC[C@H]3C(=O)N(C)CC(=O)N(C)[C@@H](C(C)C)C(=O)O[C@@H]2C)c(N)c1=O` [actinomycin D] (I: T[dV]P[Sar][NMeV] / II: T[dV]P[Sar][NMeV]; ester I:1-I:C, II:1-II:C; linker I:N-II:N via Actinocin(9to1)), the “hormonal induction of enzyme activity” value in assay [1] is “completely blocked”.

In the case of `C[C@@H]1C[C@@H]([C@H](O)CC2CC(=O)NC(=O)C2)C(=O)[C@@H](C)C1` [cycloheximide], the “hormonal induction of enzyme activity” value in assay [1] is on record as “completely blocked”.

Regarding `Cn1c(=O)c2[nH]cnc2n(C)c1=O` [Theophylline, theophylline], the “mimicking of the MSH response” value in assay [2] is on record as “mimicked”. The “response of mouse melanoma cells” value in assay [3] is reported as “respond vigorously”. Moreover, the activity at 1000 µM in assay [4] was 150 to 200%; in assay [5] (72 h, White skin (control 0.31 ± 0.03)), 307%; in assay [5] (72 h, first Black skin (control 2.55 ± 0.13)), 212%; in assay [5] (72 h, second Black skin (control 3.09 ± 0.12)) it was 197%. Also, the “Tyrosinase activity stimulated, percentage of black foreskins” value in assay [5] (setting [6]) worked out at 92%. In addition, the “Tyrosinase activity unaffected, percentage of black foreskins” value in assay [5] (setting [6]) was determined as 8%. Besides, in assay [5] (setting [7]), the “Tyrosinase activity stimulated, percentage of white foreskins” value turned out to be 86%. For the same compound, in assay [5] (setting [7]), the “Tyrosinase activity unaffected, percentage of white foreskins” value is 14%. In addition, the “Tyrosinase Activity” value in assay [5] (White skin (control 0.31 ± 0.03)) was 0.95 ± 0.05 pmoles ^3 H2 O/hr/mg skin; in assay [5] (first Black skin (control 2.55 ± 0.13)), 5.40 ± 0.26 pmoles ^3 H2 O/hr/mg skin; in assay [5] (second Black skin (control 3.09 ± 0.12)), 6.1 ± 0.24 pmoles ^3 H2 O/hr/mg skin. Further, the “stimulation of tyrosinase activity” value in assay [5] (human foreskins, 72 hours) is given as “stronger stimulation of tyrosinase”.

Turning to α-amanitin, the “hormonal induction of enzyme activity” value in assay [1] is “completely blocked”.
